# Laboratory results from the supplement of paper PMC11208160.
# Experiment: recombinant barcode read abundance after kanamycin selection (control-corrected) (log10(CPM+1)); higher = more efficient recombination; sequences stand for … in AGTGCAGAGAAAATCGGCCAGTTTTCTCTGCCTGCAGTCCGCATGCCGT…AGATTTATGCAGCGGACTGCCTTTCTCCCAAAGTGATAAACCGGACAGTATCATGGACCGGTTTTCCCGGTAATCCGTATTTGCAAGGTTGGTTTCACT; site = the 11-nt target
# How it was run: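 In a pooled screen in E. coli, targets were paired with target-binding loops of the IS621 bridge RNA. Each oligo carried a promoter, a target, a barcode and the first 104 bridge RNA bases driven by J23119, and was Gibson-cloned into a vector holding the remaining 73 bp and a T7-inducible recombinase before co-electroporation with a donor plasmid. Duplicate platings went onto chloramphenicol/ampicillin LB agar as the control or onto chloramphenicol/ampicillin/kanamycin with 0.1 mM IPTG. Recombination efficiency is the averaged, control-corrected count per million of barcodes at recombinant junctions, given as log10(CPM+1).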
# 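Note: IS621 recombinase and bridge RNA in Escherichia coli cells.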
row,Sequence,recombinant barcode read abundance (log10)
1,CGGAATCCTTGGGTTCTAACCTGTTGCCT (site CGGAATCCTAA),0.198
2,CGGAATCCTTGGGTTCTAACCTGTTGCCT (site CGGAATCCTAC),0.00785
3,CGGAATCCTTGGGTTCTAACCTGTTGCCT (site CGGAATCCTAG),0.864
4,CGGAATCCTTGGGTTCTAACCTGTTGCCT (site CGGAATCCTAT),0.0895
5,CGGAATTCTTGGGTTCTAACCTGTTGCCT (site CGGAATTCTAG),1.17
6,CGGAATTCTTGGGTTCTAACCTGTTGCCT (site CGTTATTCTAG),0.743
7,CGGACGGCTTGGGTTCTAACCTGTTGCCT (site CGGACGACTAG),0.376
8,CGGACGGCTTGGGTTCTAACCTGTTGCCT (site CGGACGCCTAG),0.285
9,CGGACGGCTTGGGTTCTAACCTGTTGCCT (site CGGACGGCTAG),0.215
10,CGGACGGCTTGGGTTCTAACCTGTTGCCT (site CGGACGTCTAG),0.271
11,CGGACGTCTTGGGTTCTAACCTGTTGCCT (site CGGACGACTAG),0.12
12,CGGACGTCTTGGGTTCTAACCTGTTGCCT (site CGGACGCCTAG),0.0491
13,CGGACGTCTTGGGTTCTAACCTGTTGCCT (site CGGACGGCTAG),0.101
14,CGGACGTCTTGGGTTCTAACCTGTTGCCT (site CGGACGTCTAG),1.45
15,CGGAGCCCTTGGGTTCTAACCTGTTGCAG (site CGGAGCCCTCT),2.06
16,CGGAGCCCTTGGGTTCTAACCTGTTGCAG (site CTGAGCCCTAT),0.143
17,CGGCACACTTGGGTTCTAACCTGTTGCCT (site CGACACACTAG),0.239
18,CGGCACACTTGGGTTCTAACCTGTTGCCT (site CGCCACACTAG),0.0516
19,CGGCACACTTGGGTTCTAACCTGTTGCCT (site CGGCACACTAG),0.761
20,CGGCACACTTGGGTTCTAACCTGTTGCCT (site CGTCACACTAG),0.00935
21,CGGCACACTTGGGTTCTAACCTGTTGCTT (site CGGCACACTAA),0.778
22,CGGCACACTTGGGTTCTAACCTGTTGCTT (site CGGCTCACTTA),0.129

row,Sequence,recombinant barcode read abundance (log10)
1,CGGCGTGCTTGGGTTCTAACCTGTTGCCT (site CAGCGTGCTAG),0.555
2,CGGCGTGCTTGGGTTCTAACCTGTTGCCT (site CCGCGTGCTAG),0.34
3,CGGCGTGCTTGGGTTCTAACCTGTTGCCT (site CGGCGTGCTAG),1.99
4,CGGCGTGCTTGGGTTCTAACCTGTTGCCT (site CTGCGTGCTAG),0.161
5,CGGCTACCTTGGGTTCTAACCTGTTGCGG (site CGGCTACCTCC),1.29
6,CGGCTACCTTGGGTTCTAACCTGTTGCGG (site GACGGCACTAG),0.0111
7,CGGCTGCCTTGGGTTCTAACCTGTTGCGG (site CGGCTGCCTCC),2.57
8,CGGCTGCCTTGGGTTCTAACCTGTTGCGG (site GTATCCGCTTG),0.446
9,CGGCTTCCTTGGGTTCTAACCTGTTGCGT (site CAACTTCCTAC),0.117
10,CGGCTTCCTTGGGTTCTAACCTGTTGCGT (site CGGCTTCCTAC),1.24
11,CGGGACACTTGGGTTCTAACCTGTTGCGG (site CGGAACACTCC),2.07
12,CGGGACACTTGGGTTCTAACCTGTTGCGG (site CGGCACACTCC),0.143
13,CGGGACACTTGGGTTCTAACCTGTTGCGG (site CGGGACACTCC),2.82
14,CGGGACACTTGGGTTCTAACCTGTTGCGG (site CGGTACACTCC),0.867
15,CGGGCTACTTGGGTTCTAACCTGTTGCCA (site CGGGCTACTTG),0.334
16,CGGGCTACTTGGGTTCTAACCTGTTGCCA (site TCCTAATCTAA),0.00664
17,CGGGGAGCTTGGGTTCTAACCTGTTGCCG (site CGGGAAGCTAG),0.427
18,CGGGGAGCTTGGGTTCTAACCTGTTGCCG (site CGGGGAGCTCG),0.761
19,CGGGGCACTTGGGTTCTAACCTGTTGCCT (site CGGGGCACTAG),0.606
20,CGGGGCACTTGGGTTCTAACCTGTTGCCT (site CTGGGCACTAG),0.18
21,CGGGGTTCTTGGGTTCTAACCTGTTGCCT (site CAGGGTTCTAG),0.321
22,CGGGGTTCTTGGGTTCTAACCTGTTGCCT (site CCGGGTTCTAG),0.167

row,Sequence,recombinant barcode read abundance (log10)
1,CGGGGTTCTTGGGTTCTAACCTGTTGCCT (site CGGGGTTCTAG),2.43
2,CGGGGTTCTTGGGTTCTAACCTGTTGCCT (site CTGGGTTCTAG),0.0823
3,CGGGTAACTTGGGTTCTAACCTGTTGCCT (site CGGGTAACTAG),0.0693
4,CGGGTAACTTGGGTTCTAACCTGTTGCCT (site CTGGAAACTAG),0.0897
5,CGGTAATCTTGGGTTCTAACCTGTTGCTT (site ACGTAATCTAA),0.0734
6,CGGTAATCTTGGGTTCTAACCTGTTGCTT (site CGGTAATCTAA),0.161
7,CGGTACACTTGGGTTCTAACCTGTTGCGG (site CGGAACACTCC),0.862
8,CGGTACACTTGGGTTCTAACCTGTTGCGG (site CGGCACACTCC),2.48
9,CGGTACACTTGGGTTCTAACCTGTTGCGG (site CGGGACACTCC),0.78
10,CGGTACACTTGGGTTCTAACCTGTTGCGG (site CGGTACACTCC),3.14
11,CGGTAGTCTTGGGTTCTAACCTGTTGCTG (site CGGTAGTCTAA),0.0345
12,CGGTAGTCTTGGGTTCTAACCTGTTGCTG (site CGGTAGTCTCA),1.08
13,CGGTGAACTTGGGTTCTAACCTGTTGCCT (site CAGTGAACTAG),0.109
14,CGGTGAACTTGGGTTCTAACCTGTTGCCT (site CCGTGAACTAG),0.148
15,CGGTGAACTTGGGTTCTAACCTGTTGCCT (site CGGTGAACTAG),1.16
16,CGGTGAACTTGGGTTCTAACCTGTTGCCT (site CTGTGAACTAG),0.146
17,CGTAAGCCTTGGGTTCTAACCTGTTGCAT (site CGCAAGCCTAT),0.265
18,CGTAAGCCTTGGGTTCTAACCTGTTGCAT (site CGTAAGCCTAT),0.57
19,CGTAGAGCTTGGGTTCTAACCTGTTGCCT (site AGTAGAACTAG),0.0247
20,CGTAGAGCTTGGGTTCTAACCTGTTGCCT (site CGTAGAGCTAG),0.349
21,CGTAGCTCTTGGGTTCTAACCTGTTGCCT (site CGAAGCTCTAG),0.133
22,CGTAGCTCTTGGGTTCTAACCTGTTGCCT (site CGCAGCTCTAG),0.128

row,Sequence,recombinant barcode read abundance (log10)
1,CGTAGCTCTTGGGTTCTAACCTGTTGCCT (site CGGAGCTCTAG),0.134
2,CGTAGCTCTTGGGTTCTAACCTGTTGCCT (site CGTAGCTCTAG),0.516
3,CGTATCACTTGGGTTCTAACCTGTTGCCT (site CCGATCACTAG),0.0447
4,CGTATCACTTGGGTTCTAACCTGTTGCCT (site CGTATCACTAG),0.0527
5,CGTATGGCTTGGGTTCTAACCTGTTGCCT (site CGTATGGCTAG),0.349
6,CGTATGGCTTGGGTTCTAACCTGTTGCCT (site CGTGGGGCTAG),0.279
7,CGTCACCCTTGGGTTCTAACCTGTTGCCT (site CGTCAACCTAG),0.0616
8,CGTCACCCTTGGGTTCTAACCTGTTGCCT (site CGTCACCCTAG),0.173
9,CGTCACCCTTGGGTTCTAACCTGTTGCCT (site CGTCAGCCTAG),0.12
10,CGTCACCCTTGGGTTCTAACCTGTTGCCT (site CGTCATCCTAG),0.126
11,CGTCAGACTTGGGTTCTAACCTGTTGCCT (site CGTAAGACTAG),0
12,CGTCAGACTTGGGTTCTAACCTGTTGCCT (site CGTCAGACTAG),0.109
13,CGTCAGACTTGGGTTCTAACCTGTTGCCT (site CGTGAGACTAG),0.212
14,CGTCAGACTTGGGTTCTAACCTGTTGCCT (site CGTTAGACTAG),0
15,CGTCTACCTTGGGTTCTAACCTGTTGCTT (site AGTCTACCTAA),0.297
16,CGTCTACCTTGGGTTCTAACCTGTTGCTT (site CGTCTACCTAA),0.242
17,CGTCTCCCTTGGGTTCTAACCTGTTGCTT (site CGTATCCCTCA),0.108
18,CGTCTCCCTTGGGTTCTAACCTGTTGCTT (site CGTCTCCCTAA),0.162
19,CGTGAACCTTGGGTTCTAACCTGTTGCGT (site CGTAAACCTAC),2.19
20,CGTGAACCTTGGGTTCTAACCTGTTGCGT (site CGTCAACCTAC),0.34
